Among the data in US12479847B2 (DANA-FARBER CANCER INSTITUTE, INC., priority 2019, dated 2025) are remaining binding values, retold here.

Holding throughout (assay): KINOMEscan (ScanMAX) kinase profiling
Common to all, as to type: binding

Assay [1] has as its target T1, panel of 468 kinases (Homo sapiens, UniProt O14965).
T1 construct: purchased KINOMEscan (ScanMAX) service
T1 sequence (O14965 1-403): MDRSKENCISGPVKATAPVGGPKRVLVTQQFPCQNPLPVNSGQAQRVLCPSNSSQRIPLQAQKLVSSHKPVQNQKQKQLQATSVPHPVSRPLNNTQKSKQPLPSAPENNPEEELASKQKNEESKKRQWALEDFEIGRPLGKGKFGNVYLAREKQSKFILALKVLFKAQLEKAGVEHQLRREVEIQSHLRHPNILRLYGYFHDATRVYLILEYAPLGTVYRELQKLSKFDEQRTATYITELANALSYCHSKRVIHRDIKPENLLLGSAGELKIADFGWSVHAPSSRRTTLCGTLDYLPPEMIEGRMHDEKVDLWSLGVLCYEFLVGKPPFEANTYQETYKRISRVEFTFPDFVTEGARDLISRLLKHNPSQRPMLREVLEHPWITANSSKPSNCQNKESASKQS
Particulars: AURKA; 1 μM; read-out: % control.

Assay [2] addresses T2, panel of 468 kinases (Homo sapiens, UniProt P27361).
T2 construct: purchased KINOMEscan (ScanMAX) service
Particulars: ERK1; 1 μM; read-out: % control.

The target of assay [3] is T3, panel of 468 kinases (Homo sapiens, UniProt P29376).
T3 construct: purchased KINOMEscan (ScanMAX) service
Particulars: LTK; 1 μM; read-out: % control.

For assay [4], the target named is T4, panel of 468 kinases (Homo sapiens, UniProt P36894).
T4 construct: purchased KINOMEscan (ScanMAX) service
T4 sequence (P36894 24-532): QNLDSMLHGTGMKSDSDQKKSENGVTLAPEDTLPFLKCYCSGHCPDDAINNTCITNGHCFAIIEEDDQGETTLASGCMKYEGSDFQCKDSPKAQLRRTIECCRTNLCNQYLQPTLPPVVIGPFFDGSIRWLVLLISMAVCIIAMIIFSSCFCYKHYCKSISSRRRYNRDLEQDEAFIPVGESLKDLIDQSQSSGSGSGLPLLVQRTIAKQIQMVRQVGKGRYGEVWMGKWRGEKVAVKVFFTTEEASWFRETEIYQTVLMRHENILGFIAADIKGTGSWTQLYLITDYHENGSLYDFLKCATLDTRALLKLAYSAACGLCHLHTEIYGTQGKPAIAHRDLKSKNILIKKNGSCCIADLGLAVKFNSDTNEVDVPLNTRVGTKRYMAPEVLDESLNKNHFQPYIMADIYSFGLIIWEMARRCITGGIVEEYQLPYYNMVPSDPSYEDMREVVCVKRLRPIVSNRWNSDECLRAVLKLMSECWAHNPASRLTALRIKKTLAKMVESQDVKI
Particulars: BMPR1A; 1 μM; read-out: % control.

The target in assay [5] is T5, panel of 468 kinases (Homo sapiens, UniProt P48730).
T5 construct: purchased KINOMEscan (ScanMAX) service
The settings on record: CSNK1D; 1 μM; read-out: % control.

For assay [6], the target named is T6, panel of 468 kinases (Homo sapiens, UniProt P57058).
T6 construct: purchased KINOMEscan (ScanMAX) service
T6 sequence (P57058 1-714): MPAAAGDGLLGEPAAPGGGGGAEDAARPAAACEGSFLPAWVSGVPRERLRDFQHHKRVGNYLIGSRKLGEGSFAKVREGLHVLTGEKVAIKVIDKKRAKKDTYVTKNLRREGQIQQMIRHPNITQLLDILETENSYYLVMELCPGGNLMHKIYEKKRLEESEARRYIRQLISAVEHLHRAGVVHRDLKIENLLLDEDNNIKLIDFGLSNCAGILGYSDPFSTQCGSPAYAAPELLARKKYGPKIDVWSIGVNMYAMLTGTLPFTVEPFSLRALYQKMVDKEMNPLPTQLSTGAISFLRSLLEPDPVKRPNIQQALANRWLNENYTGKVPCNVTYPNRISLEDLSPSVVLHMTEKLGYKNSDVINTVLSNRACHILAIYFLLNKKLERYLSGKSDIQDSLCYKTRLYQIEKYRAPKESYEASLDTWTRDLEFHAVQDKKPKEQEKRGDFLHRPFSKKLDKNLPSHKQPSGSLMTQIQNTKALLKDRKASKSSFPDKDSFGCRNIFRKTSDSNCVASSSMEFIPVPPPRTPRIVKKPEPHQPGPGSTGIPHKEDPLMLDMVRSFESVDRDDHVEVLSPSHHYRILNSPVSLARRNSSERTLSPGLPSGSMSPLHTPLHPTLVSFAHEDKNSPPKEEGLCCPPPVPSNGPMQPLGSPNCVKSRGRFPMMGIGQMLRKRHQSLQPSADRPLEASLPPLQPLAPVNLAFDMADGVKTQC
The settings on record: HUNK; 1 μM; read-out: % control.

The target in assay [7] is T7, panel of 468 kinases (Homo sapiens, UniProt Q00532).
T7 construct: purchased KINOMEscan (ScanMAX) service
Particulars: CDKL1; 1 μM; read-out: % control.

In assay [8] the target is T8, panel of 468 kinases (Homo sapiens, UniProt Q13523).
T8 construct: purchased KINOMEscan (ScanMAX) service
T8 sequence (Q13523 whole entry): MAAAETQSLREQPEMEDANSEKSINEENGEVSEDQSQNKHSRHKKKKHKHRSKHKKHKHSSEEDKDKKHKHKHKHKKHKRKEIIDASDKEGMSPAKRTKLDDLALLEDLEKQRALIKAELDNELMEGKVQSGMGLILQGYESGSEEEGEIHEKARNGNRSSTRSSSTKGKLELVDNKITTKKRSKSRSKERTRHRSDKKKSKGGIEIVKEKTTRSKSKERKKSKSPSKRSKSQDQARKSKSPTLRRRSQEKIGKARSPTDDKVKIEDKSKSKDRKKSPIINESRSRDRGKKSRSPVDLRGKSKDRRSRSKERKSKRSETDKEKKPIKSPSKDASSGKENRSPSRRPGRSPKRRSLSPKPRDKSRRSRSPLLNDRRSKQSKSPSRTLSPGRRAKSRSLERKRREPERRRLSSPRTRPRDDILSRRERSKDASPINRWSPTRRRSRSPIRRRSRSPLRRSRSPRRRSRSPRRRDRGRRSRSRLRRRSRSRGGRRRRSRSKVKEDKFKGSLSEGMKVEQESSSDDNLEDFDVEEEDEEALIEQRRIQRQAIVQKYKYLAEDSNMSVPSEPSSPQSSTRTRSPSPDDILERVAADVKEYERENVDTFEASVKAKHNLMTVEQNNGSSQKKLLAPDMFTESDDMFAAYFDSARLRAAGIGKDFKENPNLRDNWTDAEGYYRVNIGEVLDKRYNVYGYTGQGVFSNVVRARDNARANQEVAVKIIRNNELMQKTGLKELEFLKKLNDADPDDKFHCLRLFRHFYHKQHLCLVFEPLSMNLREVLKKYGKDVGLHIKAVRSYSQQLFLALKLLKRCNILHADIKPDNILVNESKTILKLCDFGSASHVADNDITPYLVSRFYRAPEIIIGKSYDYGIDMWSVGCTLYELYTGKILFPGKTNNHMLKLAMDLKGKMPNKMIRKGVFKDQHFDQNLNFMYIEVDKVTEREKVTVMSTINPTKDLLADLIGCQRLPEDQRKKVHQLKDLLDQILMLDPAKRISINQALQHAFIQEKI
The settings on record: PRP4; 1 μM; read-out: % control.

Assay [9] addresses T9, panel of 468 kinases (Homo sapiens, UniProt Q13976).
T9 construct: purchased KINOMEscan (ScanMAX) service
T9 sequence (Q13976 1-671): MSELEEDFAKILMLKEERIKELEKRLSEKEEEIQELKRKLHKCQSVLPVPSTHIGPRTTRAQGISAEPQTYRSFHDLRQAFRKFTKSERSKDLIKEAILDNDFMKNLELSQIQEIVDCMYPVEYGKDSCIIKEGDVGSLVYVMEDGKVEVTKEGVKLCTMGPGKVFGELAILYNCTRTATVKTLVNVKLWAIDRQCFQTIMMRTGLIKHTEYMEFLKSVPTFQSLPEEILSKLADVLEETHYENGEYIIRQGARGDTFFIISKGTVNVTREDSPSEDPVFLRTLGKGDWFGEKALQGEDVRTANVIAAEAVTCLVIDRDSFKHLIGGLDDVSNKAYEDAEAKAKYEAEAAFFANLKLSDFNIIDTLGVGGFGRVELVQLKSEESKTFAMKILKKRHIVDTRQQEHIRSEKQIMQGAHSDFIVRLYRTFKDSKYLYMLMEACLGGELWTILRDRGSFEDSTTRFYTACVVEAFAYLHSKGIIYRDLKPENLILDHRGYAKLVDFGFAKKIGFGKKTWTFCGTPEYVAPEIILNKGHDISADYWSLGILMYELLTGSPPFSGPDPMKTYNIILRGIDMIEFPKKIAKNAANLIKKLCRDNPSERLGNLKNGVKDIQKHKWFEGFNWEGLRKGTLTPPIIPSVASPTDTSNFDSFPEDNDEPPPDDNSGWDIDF
Particulars: PRKG1; 1 μM; read-out: % control.

Assay [10] addresses T10, panel of 468 kinases (Homo sapiens, UniProt Q7KZI7).
T10 construct: purchased KINOMEscan (ScanMAX) service
The settings on record: MARK2; 1 μM; read-out: % control.

Assay [11] deals with T11, panel of 468 kinases (Homo sapiens, UniProt Q9H0K1).
T11 construct: purchased KINOMEscan (ScanMAX) service
T11 sequence (Q9H0K1 whole entry): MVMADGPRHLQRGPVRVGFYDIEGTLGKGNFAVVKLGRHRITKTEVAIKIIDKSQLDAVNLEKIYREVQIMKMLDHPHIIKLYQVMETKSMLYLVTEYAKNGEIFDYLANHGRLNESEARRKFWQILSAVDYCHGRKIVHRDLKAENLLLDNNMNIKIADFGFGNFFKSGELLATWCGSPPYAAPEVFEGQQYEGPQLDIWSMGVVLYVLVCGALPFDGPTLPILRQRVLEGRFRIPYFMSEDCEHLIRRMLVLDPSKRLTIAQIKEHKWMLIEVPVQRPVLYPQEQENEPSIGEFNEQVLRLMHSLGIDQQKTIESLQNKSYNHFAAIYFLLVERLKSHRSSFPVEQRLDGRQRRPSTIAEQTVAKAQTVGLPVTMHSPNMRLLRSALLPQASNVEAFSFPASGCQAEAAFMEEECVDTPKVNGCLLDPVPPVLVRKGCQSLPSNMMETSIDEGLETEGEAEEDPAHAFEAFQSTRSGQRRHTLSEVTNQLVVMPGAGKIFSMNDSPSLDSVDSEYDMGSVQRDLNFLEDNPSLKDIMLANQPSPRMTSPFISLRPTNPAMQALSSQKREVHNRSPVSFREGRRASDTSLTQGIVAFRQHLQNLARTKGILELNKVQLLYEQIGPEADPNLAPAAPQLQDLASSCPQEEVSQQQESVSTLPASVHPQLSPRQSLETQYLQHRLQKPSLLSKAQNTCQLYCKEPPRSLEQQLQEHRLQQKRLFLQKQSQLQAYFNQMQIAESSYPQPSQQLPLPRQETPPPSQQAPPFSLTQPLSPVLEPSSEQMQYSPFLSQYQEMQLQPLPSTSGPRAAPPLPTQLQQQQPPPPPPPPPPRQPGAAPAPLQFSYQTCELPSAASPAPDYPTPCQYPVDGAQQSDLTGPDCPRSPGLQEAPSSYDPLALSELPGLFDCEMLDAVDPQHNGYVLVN
The settings on record: SIK2; 1 μM; read-out: % control.

Assay [12] has as its target T12, panel of 468 kinases (Homo sapiens, UniProt Q9UM73).
T12 construct: purchased KINOMEscan (ScanMAX) service
The settings on record: ALK; 1 μM; read-out: % control.

T12 sequence (Q9UM73 19-1620): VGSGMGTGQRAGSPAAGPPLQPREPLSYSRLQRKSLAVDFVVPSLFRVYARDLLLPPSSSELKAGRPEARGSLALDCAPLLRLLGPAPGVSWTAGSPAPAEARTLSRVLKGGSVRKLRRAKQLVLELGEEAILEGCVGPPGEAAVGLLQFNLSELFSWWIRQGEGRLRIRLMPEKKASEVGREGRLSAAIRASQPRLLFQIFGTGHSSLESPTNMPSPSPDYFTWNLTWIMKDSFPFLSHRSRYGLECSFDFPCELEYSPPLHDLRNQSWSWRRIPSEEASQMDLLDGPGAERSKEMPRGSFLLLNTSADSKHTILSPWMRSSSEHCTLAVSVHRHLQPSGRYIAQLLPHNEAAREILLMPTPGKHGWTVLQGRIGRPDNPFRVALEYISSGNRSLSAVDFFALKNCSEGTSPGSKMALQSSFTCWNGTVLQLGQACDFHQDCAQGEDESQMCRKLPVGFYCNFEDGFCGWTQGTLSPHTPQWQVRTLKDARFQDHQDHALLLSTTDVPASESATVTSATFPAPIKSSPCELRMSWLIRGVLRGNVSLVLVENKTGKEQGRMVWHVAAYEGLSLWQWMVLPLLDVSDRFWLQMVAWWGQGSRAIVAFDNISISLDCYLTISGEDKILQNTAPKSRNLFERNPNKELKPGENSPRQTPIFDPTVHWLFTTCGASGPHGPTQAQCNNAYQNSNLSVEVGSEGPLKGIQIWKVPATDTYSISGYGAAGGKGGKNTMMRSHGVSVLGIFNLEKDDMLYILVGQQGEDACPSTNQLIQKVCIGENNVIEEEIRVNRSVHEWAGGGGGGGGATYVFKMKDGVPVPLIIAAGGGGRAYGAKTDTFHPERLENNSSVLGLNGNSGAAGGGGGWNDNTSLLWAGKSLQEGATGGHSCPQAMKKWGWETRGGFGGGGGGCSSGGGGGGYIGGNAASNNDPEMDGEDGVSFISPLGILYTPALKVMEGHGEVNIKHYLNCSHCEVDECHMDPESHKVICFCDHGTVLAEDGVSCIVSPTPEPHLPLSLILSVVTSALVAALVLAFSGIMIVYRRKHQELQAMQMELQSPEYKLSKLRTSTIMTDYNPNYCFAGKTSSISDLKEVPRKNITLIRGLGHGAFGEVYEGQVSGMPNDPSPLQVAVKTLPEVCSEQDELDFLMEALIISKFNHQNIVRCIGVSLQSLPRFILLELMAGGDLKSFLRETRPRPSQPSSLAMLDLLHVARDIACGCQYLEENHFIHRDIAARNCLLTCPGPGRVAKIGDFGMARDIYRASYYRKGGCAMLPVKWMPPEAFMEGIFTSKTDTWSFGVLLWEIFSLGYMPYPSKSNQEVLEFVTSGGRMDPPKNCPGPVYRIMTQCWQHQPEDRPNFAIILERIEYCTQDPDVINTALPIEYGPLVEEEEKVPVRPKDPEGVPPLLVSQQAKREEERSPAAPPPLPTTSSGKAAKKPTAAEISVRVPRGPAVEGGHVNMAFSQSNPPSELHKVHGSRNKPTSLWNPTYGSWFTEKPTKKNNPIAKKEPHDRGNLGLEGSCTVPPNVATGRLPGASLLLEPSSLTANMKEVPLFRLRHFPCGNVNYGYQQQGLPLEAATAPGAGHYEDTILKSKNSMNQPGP
T10 sequence (Q7KZI7 whole entry): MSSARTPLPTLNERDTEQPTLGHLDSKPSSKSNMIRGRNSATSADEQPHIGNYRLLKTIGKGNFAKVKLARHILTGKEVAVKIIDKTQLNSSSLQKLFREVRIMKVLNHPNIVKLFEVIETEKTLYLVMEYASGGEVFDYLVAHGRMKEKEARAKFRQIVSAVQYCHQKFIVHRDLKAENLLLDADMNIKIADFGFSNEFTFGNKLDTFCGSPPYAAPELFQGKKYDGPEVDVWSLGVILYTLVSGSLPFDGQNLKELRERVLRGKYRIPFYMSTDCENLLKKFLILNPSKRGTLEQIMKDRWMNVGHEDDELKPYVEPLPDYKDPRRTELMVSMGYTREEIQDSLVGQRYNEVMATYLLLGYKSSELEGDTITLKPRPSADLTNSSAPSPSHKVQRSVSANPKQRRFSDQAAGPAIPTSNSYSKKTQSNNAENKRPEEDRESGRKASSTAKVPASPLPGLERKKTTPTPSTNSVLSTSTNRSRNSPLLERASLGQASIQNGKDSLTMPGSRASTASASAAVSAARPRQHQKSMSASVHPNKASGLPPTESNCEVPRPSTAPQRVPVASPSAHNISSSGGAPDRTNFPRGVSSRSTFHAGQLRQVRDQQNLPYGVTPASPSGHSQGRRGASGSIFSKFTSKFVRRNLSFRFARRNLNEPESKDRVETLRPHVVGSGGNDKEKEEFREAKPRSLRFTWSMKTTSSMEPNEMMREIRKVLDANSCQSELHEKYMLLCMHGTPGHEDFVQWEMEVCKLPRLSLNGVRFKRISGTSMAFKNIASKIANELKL

In the case of `CNc1nc(Nc2ccc(C(=O)N3CCC(N4CCOCC4)CC3)c3c2OCO3)nc2[nH]cc(Cl)c12` [Compound 75, (7-((5-chloro-4-(methylamino)-7H-pyrrolo[2,3-d]pyrimidin-2-yl)amino)benzo[d][1,3]dioxol-4-yl)(4-morpholinopiperidin-1-yl)methanone], the remaining binding at 1 µM stood at 45% on panel of 468 kinases [1]; 100% at panel of 468 kinases [2]; 19% at panel of 468 kinases [3]; 85% on panel of 468 kinases [4]; 15% on panel of 468 kinases [5]; 18% on panel of 468 kinases [6]. The remaining binding at 1 µM on panel of 468 kinases [7] amounted to 95%; on panel of 468 kinases [8] it was 100%; at panel of 468 kinases [9] it was 100%; at panel of 468 kinases [10], 100%; on panel of 468 kinases [11], 100%; at panel of 468 kinases [12], 1.9%.
`CNc1nc(Nc2ccc(P3(=O)CCN(C4CCOCC4)CC3)cc2OC)nc2[nH]cc(Cl)c12` [Compound 77, 4-(4-((5-chloro-4-(methylamino)-7H-pyrrolo[2,3-d]pyrimidin-2-yl)amino)-3-methoxyphenyl)-1-(tetrahydro-2H-pyran-4-yl)-1,4-azaphosphinane 4-oxide]: the remaining binding at 1 µM is 85% at panel of 468 kinases [1]; 100% on panel of 468 kinases [2]; 21% at panel of 468 kinases [3]; 96% at panel of 468 kinases [4]; 8.9% on panel of 468 kinases [5]; 14% on panel of 468 kinases [6]. The remaining binding at 1 µM at panel of 468 kinases [7] was found to be 87%; at panel of 468 kinases [8], 100%; on panel of 468 kinases [9] it was 100%; on panel of 468 kinases [10], 100%; on panel of 468 kinases [11] it was 100%; at panel of 468 kinases [12], 2%.
For `CNc1nc(Nc2ccc(S(=O)(=O)N3CCC(N4CCOCC4)CC3)cc2OC)nc2[nH]cc(Cl)c12` [Compound 12, 5-chloro-N2-(2-methoxy-4-((4-morpholinopiperidin-1-yl)sulfonyl)phenyl)-N4-methyl-7H-pyrrolo[2,3-d]pyrimidine-2,4-diamine], the remaining binding at 1 µM came to 93% on panel of 468 kinases [1]; 100% on panel of 468 kinases [2]; 22% on panel of 468 kinases [3]; 96% at panel of 468 kinases [4]; 9.5% at panel of 468 kinases [5]; 12% at panel of 468 kinases [6]. The remaining binding at 1 µM at panel of 468 kinases [7] was determined as 85%; at panel of 468 kinases [8], 100%; on panel of 468 kinases [9] it was 100%; at panel of 468 kinases [10], 100%; on panel of 468 kinases [11], 100%; on panel of 468 kinases [12] it was 3.4%.
